Experimental data as given in the supplement of paper PMC11208160.

experiment: recombinant barcode read abundance after kanamycin selection (control-corrected) (log10(CPM+1)); higher = more efficient recombination; sequences stand for … in AGTGCAGAGAAAATCGGCCAGTTTTCTCTGCCTGCAGTCCGCATGCCGT…AGATTTATGCAGCGGACTGCCTTTCTCCCAAAGTGATAAACCGGACAGTATCATGGACCGGTTTTCCCGGTAATCCGTATTTGCAAGGTTGGTTTCACT; site = the 11-nt target
Outline: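 A vector carrying a T7-inducible recombinase and the last 73 bp of the bridge RNA received, by Gibson cloning, oligos encoding a promoter, target, barcode and the first 104 bridge RNA bases under J23119. The pooled constructs entered E. coli together with a donor plasmid by electroporation. Selection used chloramphenicol/ampicillin/kanamycin with 0.1 mM IPTG, with chloramphenicol/ampicillin LB agar as the control, each in two replicates. Recombination efficiency is the averaged, control-corrected counts-per-million of barcodes at recombinant junctions, reported as log10(CPM+1).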
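Further: IS621 recombinase and bridge RNA in Escherichia coli cells.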

| Sequence | recombinant barcode read abundance (log10) |
| --- | --- |
| GTAGGAACTTGGGTTCTAACCTGTTGCTG (site CGGCTGTCTAG) | 0.0122 |
| GTAGGAACTTGGGTTCTAACCTGTTGCTG (site GTAGGAACTCA) | 2.54 |
| GTAGGGACTTGGGTTCTAACCTGTTGCCG (site AGCCCTTCTAA) | 0.192 |
| GTAGGGACTTGGGTTCTAACCTGTTGCCG (site GTAGGGACTCG) | 2.47 |
| GTAGTACCTTGGGTTCTAACCTGTTGCCT (site GTAGTAACTAG) | 0.0694 |
| GTAGTACCTTGGGTTCTAACCTGTTGCCT (site GTAGTACCTAG) | 1.73 |
| GTAGTACCTTGGGTTCTAACCTGTTGCCT (site GTAGTAGCTAG) | 0.247 |
| GTAGTACCTTGGGTTCTAACCTGTTGCCT (site GTAGTATCTAG) | 0.545 |
| GTAGTCCCTTGGGTTCTAACCTGTTGCCT (site GAAGTCTCTAG) | 0.118 |
| GTAGTCCCTTGGGTTCTAACCTGTTGCCT (site GTAGTCCCTAG) | 2.06 |
| GTAGTGTCTTGGGTTCTAACCTGTTGCTA (site CTAGTGTCTTA) | 1.61 |
| GTAGTGTCTTGGGTTCTAACCTGTTGCTA (site GTAGTGTCTTA) | 2.37 |
| GTATCAACTTGGGTTCTAACCTGTTGCCT (site GTATCAACTAG) | 0.35 |
| GTATCAACTTGGGTTCTAACCTGTTGCCT (site GTATCACCTAG) | 0.0908 |
| GTATCAACTTGGGTTCTAACCTGTTGCCT (site GTATCAGCTAG) | 0.0211 |
| GTATCAACTTGGGTTCTAACCTGTTGCCT (site GTATCATCTAG) | 0 |
| GTATCACCTTGGGTTCTAACCTGTTGCCT (site GTATCAACTAG) | 0.19 |
| GTATCACCTTGGGTTCTAACCTGTTGCCT (site GTATCACCTAG) | 1.44 |
| GTATCACCTTGGGTTCTAACCTGTTGCCT (site GTATCAGCTAG) | 0.187 |
| GTATCACCTTGGGTTCTAACCTGTTGCCT (site GTATCATCTAG) | 0.0641 |
| GTATGACCTTGGGTTCTAACCTGTTGCCT (site GTATGAACTAG) | 0.0455 |
| GTATGACCTTGGGTTCTAACCTGTTGCCT (site GTATGACCTAG) | 1.86 |

| Sequence | recombinant barcode read abundance (log10) |
| --- | --- |
| GTATGACCTTGGGTTCTAACCTGTTGCCT (site GTATGAGCTAG) | 0.0609 |
| GTATGACCTTGGGTTCTAACCTGTTGCCT (site GTATGATCTAG) | 0.217 |
| GTATGAGCTTGGGTTCTAACCTGTTGCCT (site GTATGAACTAG) | 0.475 |
| GTATGAGCTTGGGTTCTAACCTGTTGCCT (site GTATGACCTAG) | 0.0478 |
| GTATGAGCTTGGGTTCTAACCTGTTGCCT (site GTATGAGCTAG) | 1.5 |
| GTATGAGCTTGGGTTCTAACCTGTTGCCT (site GTATGATCTAG) | 0.135 |
| GTATGCCCTTGGGTTCTAACCTGTTGCCT (site GTATGCCCTAG) | 1.38 |
| GTATGCCCTTGGGTTCTAACCTGTTGCCT (site GTGGGCCCTAG) | 0 |
| GTATGGTCTTGGGTTCTAACCTGTTGCGT (site GTATCGTCTAG) | 0.0442 |
| GTATGGTCTTGGGTTCTAACCTGTTGCGT (site GTATGGTCTAC) | 2.98 |
| GTATGTACTTGGGTTCTAACCTGTTGCAT (site GTATGATCTAT) | 0.206 |
| GTATGTACTTGGGTTCTAACCTGTTGCAT (site GTATGTACTAT) | 0.435 |
| GTCAACTCTTGGGTTCTAACCTGTTGCCT (site GTAAACTCTAG) | 0.0267 |
| GTCAACTCTTGGGTTCTAACCTGTTGCCT (site GTCAACTCTAG) | 2.06 |
| GTCAACTCTTGGGTTCTAACCTGTTGCCT (site GTGAACTCTAG) | 0.00674 |
| GTCAACTCTTGGGTTCTAACCTGTTGCCT (site GTTAACTCTAG) | 0.13 |
| GTCAATCCTTGGGTTCTAACCTGTTGCGG (site CGACGAACTAG) | 0.138 |
| GTCAATCCTTGGGTTCTAACCTGTTGCGG (site GTCAATCCTCC) | 1.25 |
| GTCAATCCTTGGGTTCTAACCTGTTGCGT (site GCCACTCCTAC) | 0.0762 |
| GTCAATCCTTGGGTTCTAACCTGTTGCGT (site GTCAATCCTAC) | 1.98 |
| GTCACCTCTTGGGTTCTAACCTGTTGCCT (site GTCACCTCTAG) | 1.8 |
| GTCACCTCTTGGGTTCTAACCTGTTGCCT (site GTCCCCTCTAG) | 0.0973 |

| Sequence | recombinant barcode read abundance (log10) |
| --- | --- |
| GTCACCTCTTGGGTTCTAACCTGTTGCCT (site GTCGCCTCTAG) | 0.0645 |
| GTCACCTCTTGGGTTCTAACCTGTTGCCT (site GTCTCCTCTAG) | 0.105 |
| GTCACTACTTGGGTTCTAACCTGTTGCGT (site GTAACTACTCC) | 0.182 |
| GTCACTACTTGGGTTCTAACCTGTTGCGT (site GTCACTACTAC) | 0.517 |
| GTCAGCCCTTGGGTTCTAACCTGTTGCGG (site GTCAGCCCTCC) | 2.53 |
| GTCAGCCCTTGGGTTCTAACCTGTTGCGG (site GTTAGCCCTCC) | 0.365 |
| GTCCCTCCTTGGGTTCTAACCTGTTGCGT (site GTCCCTCCTAA) | 0.0918 |
| GTCCCTCCTTGGGTTCTAACCTGTTGCGT (site GTCCCTCCTAC) | 2.74 |
| GTCCCTCCTTGGGTTCTAACCTGTTGCGT (site GTCCCTCCTAG) | 0.156 |
| GTCCCTCCTTGGGTTCTAACCTGTTGCGT (site GTCCCTCCTAT) | 1.34 |
| GTCCTACCTTGGGTTCTAACCTGTTGCAA (site GTCCTAACTGT) | 0.42 |
| GTCCTACCTTGGGTTCTAACCTGTTGCAA (site GTCCTACCTTT) | 1.45 |
| GTCGAGCCTTGGGTTCTAACCTGTTGCCT (site GTCGAGCCTAG) | 2.12 |
| GTCGAGCCTTGGGTTCTAACCTGTTGCCT (site GTTCAGCCTAG) | 0.157 |
| GTCGAGTCTTGGGTTCTAACCTGTTGCCT (site GTCGACACTAG) | 0.186 |
| GTCGAGTCTTGGGTTCTAACCTGTTGCCT (site GTCGAGTCTAG) | 1.61 |
| GTCGCTACTTGGGTTCTAACCTGTTGCCG (site GTCACTACTCG) | 0 |
| GTCGCTACTTGGGTTCTAACCTGTTGCCG (site GTCCCTACTCG) | 0.0655 |
| GTCGCTACTTGGGTTCTAACCTGTTGCCG (site GTCGCTACTCG) | 0.95 |
| GTCGCTACTTGGGTTCTAACCTGTTGCCG (site GTCTCTACTCG) | 1.35 |
| GTCGCTACTTGGGTTCTAACCTGTTGCGG (site GTCGCTACTCC) | 0.785 |
| GTCGCTACTTGGGTTCTAACCTGTTGCGG (site GTCTCTACTCC) | 0.667 |

| Sequence | recombinant barcode read abundance (log10) |
| --- | --- |
| GTCGGTCCTTGGGTTCTAACCTGTTGCAC (site GTCGGTCCTGT) | 2.49 |
| GTCGGTCCTTGGGTTCTAACCTGTTGCAC (site TGAAACTCTCC) | 0.0122 |
| GTCGTACCTTGGGTTCTAACCTGTTGCCT (site GTCATACCTAG) | 0.348 |
| GTCGTACCTTGGGTTCTAACCTGTTGCCT (site GTCCTACCTAG) | 0.0361 |
| GTCGTACCTTGGGTTCTAACCTGTTGCCT (site GTCGTACCTAG) | 0.704 |
| GTCGTACCTTGGGTTCTAACCTGTTGCCT (site GTCTTACCTAG) | 0.221 |
| GTCGTAGCTTGGGTTCTAACCTGTTGCTA (site GTCGAACCTTA) | 0.139 |
| GTCGTAGCTTGGGTTCTAACCTGTTGCTA (site GTCGTAGCTTA) | 0.353 |
| GTCGTCGCTTGGGTTCTAACCTGTTGCCT (site GTCGTCACTAG) | 0.136 |
| GTCGTCGCTTGGGTTCTAACCTGTTGCCT (site GTCGTCCCTAG) | 0.0726 |
| GTCGTCGCTTGGGTTCTAACCTGTTGCCT (site GTCGTCGCTAG) | 0.376 |
| GTCGTCGCTTGGGTTCTAACCTGTTGCCT (site GTCGTCTCTAG) | 0.0427 |
| GTCTAAGCTTGGGTTCTAACCTGTTGCCG (site GTCTAAGCTCG) | 0.59 |
| GTCTAAGCTTGGGTTCTAACCTGTTGCCG (site GTCTACGCTTG) | 0.0178 |
| GTCTAAGCTTGGGTTCTAACCTGTTGCTT (site GTCTAAGCTAA) | 0.0172 |
| GTCTAAGCTTGGGTTCTAACCTGTTGCTT (site GTCTATGCTAC) | 0.295 |
| GTCTAATCTTGGGTTCTAACCTGTTGCAT (site ACAGGTCCTCG) | 0.0725 |
| GTCTAATCTTGGGTTCTAACCTGTTGCAT (site GTCTAATCTAT) | 1.02 |
| GTCTCGTCTTGGGTTCTAACCTGTTGCTT (site GTCTCGTCTAA) | 0.246 |
| GTCTCGTCTTGGGTTCTAACCTGTTGCTT (site GTCTCTTCTTA) | 0.0559 |
